Assay results reported in paper PMC6480586, “Intestinal Permeability Study of Clinically Relevant Formulations of Silibinin in Caco-2 Cell Monolayers” (International Journal of Molecular Sciences, 2019).

Assays:
[1] = Caco-2 cell monolayer transport (permeability) study; assay type: in vitro ADME; details: human, formulations at 200 µg/mL in HBSS/0.6% DMSO, pH 7.4, 37 °C, up to 120 min, n = 6; for Papp A→B at 120 min, 200 µg/mL: apical to basolateral
Description: Caco-2 cells were seeded at a density of 1 × 10^5 onto Transwell 6-well inserts with a polyethylene terephthalate membrane (0.4 µm pore size; BD Falcon) and were maintained at 37 °C under 90% humidity and 5% CO2. The medium was replaced every two to three days for both the AP and BL chambers. Cell monolayers were used 19–21 days after seeding, once confluence and differentiation were achieved. The integrity of each cell monolayer was assessed by measuring the TEER before and after the experiments with an epithelial voltammeter (Millicell-ERS). Permeability studies were performed by adding the silibinin formulations at 200 µg/mL in HBSS/0.6% DMSO (stocks were prepared at 30 mg/mL in 100% DMSO) and, in parallel, standard silibinin at different concentrations (10, 20, 50, 100, 150, 200, and 300 µmol/L).
The transport experiment was initiated by removing the culture medium from the AP and BL chambers. The Caco-2 monolayers were washed twice with pre-warmed HBSS (pH 7.4) and incubated with the same solution at 37 °C for 30 min. […]
Transport studies were performed from apical-to-basolateral (AP–BL) and basolateral-to-apical (BL–AP) chambers. The apparent permeability (Papp) values for each compound were calculated according to the following equation: Papp=dQ/dt·1/A·C0·60 where Papp is the apparent permeability (cm/s), dQ/dt is the steady-state flux, A is the diffusion area of the monolayers (cm^2), C0 is the initial concentration of the drug in the donor compartment (µM), and 60 is a conversion factor [49].
The efflux ratio was calculated to determine the absorption mechanism such as the ratio of Papp (BL–AP) […] Papp (AP–BL).
Analyses were performed using an Agilent LC 1100 series HPLC system (Agilent Technologies, Inc., Palo Alto, CA) controlled by Chemstation software, equipped with a pump, autosampler, column oven, and UV–VIS diode array detector (wavelength selected at 280 nm to detect silibinin). […] A calibration graph for the quantitative evaluation of silibinin was performed using a six-point regression curve (r^2 > 0.999).

[2] = cited from earlier work

COCCc1ccc(OCC(O)CNC(C)C)cc1 (centres unmarked) [metroprolol, metoprolol]
Papp A→B at 120 min, 200 µg/mL [1]: 60 ×10⁻⁶ cm/s

COc1cc(C2Oc3cc([C@H]4Oc5cc(O)cc(O)c5C(=O)[C@@H]4O)ccc3OC2CO)ccc1O (some centres unmarked) [silibinin]
Papp A→B at 120 min, 200 µg/mL [1]: 3.2 ×10⁻⁶ cm/s | Papp B→A at 120 min, 200 µg/mL ([1]; basolateral to apical): 6.28 ×10⁻⁶ cm/s | Solubility in polar aprotic solvents ([2]; e.g., acetone, DMF, THF): soluble | Solubility in non-polar solvents ([2]; e.g., chloroform and petroleum ether): insoluble | Solubility in polar protic solvents ([2]; e.g., ethanol and methanol): poorly soluble | Solubility in water ([2]; water): very poor solubility in water | Water solubility ([2]; water): < 40 µg/mL
